{
  "source": "paper PMC6018403",
  "about": "(Frontiers in Pharmacology, 2018)",
  "key": {"[1]": {"target": "T1, P-glycoprotein (P-gp) (Homo sapiens, UniProt P08183)", "T1 construct": "host or cells: Caco-2 (human colon adenocarcinoma) monolayers, passages 24-35", "T1 sequence (P08183 whole entry)": "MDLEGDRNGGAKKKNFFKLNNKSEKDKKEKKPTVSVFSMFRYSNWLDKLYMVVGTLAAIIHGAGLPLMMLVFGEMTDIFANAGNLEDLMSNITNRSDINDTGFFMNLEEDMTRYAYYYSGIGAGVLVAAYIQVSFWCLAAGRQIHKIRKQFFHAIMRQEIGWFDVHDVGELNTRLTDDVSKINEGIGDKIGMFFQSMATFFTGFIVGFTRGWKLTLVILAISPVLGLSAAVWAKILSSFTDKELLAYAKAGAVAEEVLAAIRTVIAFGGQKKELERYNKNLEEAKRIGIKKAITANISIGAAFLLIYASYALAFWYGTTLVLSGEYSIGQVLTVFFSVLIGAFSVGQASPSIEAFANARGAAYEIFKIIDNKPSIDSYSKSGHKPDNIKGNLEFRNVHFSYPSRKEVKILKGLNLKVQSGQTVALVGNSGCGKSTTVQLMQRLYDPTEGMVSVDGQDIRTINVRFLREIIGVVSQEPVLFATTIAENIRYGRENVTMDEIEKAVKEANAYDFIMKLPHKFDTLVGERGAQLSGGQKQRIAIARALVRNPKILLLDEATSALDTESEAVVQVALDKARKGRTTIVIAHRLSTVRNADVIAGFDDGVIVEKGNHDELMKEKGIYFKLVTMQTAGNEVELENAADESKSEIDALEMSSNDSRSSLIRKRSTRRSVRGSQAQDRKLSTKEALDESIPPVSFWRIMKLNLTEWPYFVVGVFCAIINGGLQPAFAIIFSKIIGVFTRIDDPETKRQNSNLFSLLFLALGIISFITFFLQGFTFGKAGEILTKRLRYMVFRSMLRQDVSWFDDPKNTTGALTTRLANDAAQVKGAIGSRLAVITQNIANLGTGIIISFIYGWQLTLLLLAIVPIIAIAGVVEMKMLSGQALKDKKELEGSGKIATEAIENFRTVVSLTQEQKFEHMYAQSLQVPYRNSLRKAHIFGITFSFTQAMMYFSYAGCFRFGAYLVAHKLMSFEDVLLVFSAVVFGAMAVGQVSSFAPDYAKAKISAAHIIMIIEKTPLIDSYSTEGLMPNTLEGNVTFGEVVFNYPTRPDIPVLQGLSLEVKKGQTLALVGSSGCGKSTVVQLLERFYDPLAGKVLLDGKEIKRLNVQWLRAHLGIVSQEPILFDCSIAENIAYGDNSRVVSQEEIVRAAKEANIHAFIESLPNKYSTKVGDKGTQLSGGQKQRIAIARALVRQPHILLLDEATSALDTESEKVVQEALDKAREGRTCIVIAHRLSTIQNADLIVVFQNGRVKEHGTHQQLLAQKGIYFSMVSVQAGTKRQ", "test": "P-gp inhibitor and inducer experiments on Caco-2 cell monolayer", "assay_type": "in vitro ADME", "conditions": "for interaction with P-gp: Caco-2 cell monolayer", "description": "The final concentration of GQD, GQD−GC, and Huang-Lian water extracts were 32, 28, and 6 μg/mL, respectively. […]\ncontaining glucose (25 mM) and HEPES (10 mM). The final concentration of berberine was 5 µM. The final concentration of DMSO was below 1% (v/v). […]\ninducer of Caco-2 cells, respectively. For the inhibitor experiments, the Caco-2 cells were cultivated in DMEM until the 21st day. After removal of the medium, the cells were incubated for 30 minutes with HBSS containing 5 µM of verapamil. For the inducer experiments, the cells were cultivated in DMEM until the 18th day, and then […]\nwas removed on the 21st day, and the cells were then incubated for 30 min with HBSS.\nBerberine and glycyrrhizic acid were added to the system following HBSS incubation.\nFor all bidirectional transport assays, samples (300 µL) were collected after 30, 60, 90, […]\nwith an equal volume of HBSS. The samples were freeze-dried and then dissolved in 300 µL of methanol. The solutions were filtered through 0.22-µm membranes before […]\n3. Inhibitor and inducer experiments […]\nrespectively. For the inhibition experiments, Caco-2 cells were cultivated in DMEM until the 21st day. After removal of the medium, the cells were incubated for 30 minutes with HBSS containing verapamil (5 µM). For induction experiments, the cells were cultivated in DMEM until the 18th day, and then cultivated in DMEM […]\nThe medium was removed on the 21st day, and the cells were then incubated for 30 min with HBSS. Berberine and glycyrrhizic acid were added to the system following HBSS incubation."}, "[2]": {"tested_on": "db/db mice", "test": "Evaluation of anti-diabetic effects in db/db mice", "assay_type": "in vivo", "conditions": "oral, 4 weeks; for anti-diabetic effects: BER 50 mg/kg/d, GLY 80 mg/kg/d alone, 50 or 80 mg/kg/d with BER", "description": "Eight-week-old male db/db mice (30–35 g) were used, and the details were described in Supplemental Data. The mice were randomly divided into eight groups. Mice were orally administered with metformin (100 mg/kg/d, n = 6), berberine (50 mg/kg/d, n = 6), glycyrrhizic acid (80 mg/kg/d, n = 6), berberine (50 mg/kg/d) combined with low-dose of glycyrrhizic acid (50 mg/kg/d, n = 6), berberine (50 mg/kg/d) combined with high-dose of glycyrrhizic acid (80 mg/kg/d, n = 6), berberine (50 mg/kg/d) combined with Gan-Cao (2.2 g/kg/d, n = 7), and GQD (18.2 g/kg/d, n = 7) for 4 weeks. For the control group, the […] were administered with an equal volume of water. On day 28, after fasted for 12 h, retro-orbital blood samples were collected, stand for 1 h, and then centrifuged (6,000 rpm, 4°C) for 20 min to obtain serum. Biochemical indicators such as blood glucose and insulin were determined on a Mindray BS-800 analyzer (Mindray Bio-Medical Electronics Co.).\nHerbal materials and extracts.\nThe four component herbs, Puerariae Lobatae Radix (Ge-Gen, GG), Scutellariae Radix (Huang-Qin, HQ), Coptidis Rhizoma (Huang-Lian, HL), and Glycyrrhizae Radix et Rhizoma Praeparata cum Melle (Gan-Cao, GC) were purchased from Tianheng Pharmacy. GQD was prepared by decocting the four component herbs […]\nof water for three times (1.5 h, 1.5 h, 0.5 h) to obtain the extracts, followed by a pre-extraction of Ge-Gen using 200 mL of water for 0.5 h. The decoctions were combined, filtered, and concentrated in vacuum at 50 °C. GQD-GC was prepared using the same procedure, except that Gan-Cao was removed from the formula. Final concentration of the GQD-GC extract was equivalent to 1.0 g of the crude drugs per mL. For single herb extracts, the herbs were decocted in 8-fold volume of water for three times (1.5 h, 1.5 h, 0.5 h) and then concentrated. […]\nFor anti-diabetic study, Eight-week-old male db/db mice (30–35 g) were purchased from Card Vince Laboratory animal Co., Ltd. The mice were bred in a cage (318 × 202 × 135 mm) in a breeding room at 25 °C, 60 ± 5% humidity, and a 12-h dark-light […]\nOn day 28, db/db mice were fasted for 12 h, and blood was collected and centrifuged to obtain serum for insulin and biochemical tests. After that, 150 µL of plasma was prepared by adding 150 µL of internal standard solution, 150 µL of methanol, and 300 µL of acetonitrile. The processing method was consistent with sample preparation for […]\n3.1. Optimization of chromatographic separation\nDifferent solvents (67% methanol, and 100% methanol) were compared to effectively extract both hydrophilic and hydrophobic compounds of GQD. […]\nbetter extraction recovery for most compounds. […]"}},
  "note": "“Also recorded” adds a separate entry of the source.",
  "data": [
    {"compound": "COc1ccc2cc3[n+](cc2c1OC)CCc1cc2c(cc1-3)OCO2", "note": "[Compound 24, berberine]", "values": [
      {"measurement": "interaction with P-gp", "setting": "[1]", "value": "P-gp substrate"},
      {"measurement": "anti-diabetic effects", "setting": "[2]; listed as BER", "value": "confirmed its anti-diabetic activities; also recorded: significant anti-diabetic and hypolipidemic activities"},
      {"measurement": "ALT and AST levels (liver damage)", "setting": "[2]; serum", "value": "decreasing"}
    ]},
    {"compound": "CC1(C)[C@@H](O[C@H]2O[C@H](C(=O)O)[C@@H](O)[C@H](O)[C@H]2O[C@@H]2O[C@H](C(=O)O)[C@@H](O)[C@H](O)[C@H]2O)CC[C@]2(C)[C@H]3C(=O)C=C4[C@@H]5C[C@@](C)(C(=O)O)CC[C@]5(C)CC[C@@]4(C)[C@]3(C)CC[C@@H]12", "note": "[Compound 36, glycyrrhizic acid]", "values": [
      {"measurement": "interaction with P-gp", "setting": "[1]; listed as GLY", "value": "inhibiting P-glycoprotein; also recorded: P-gp inhibitor"},
      {"measurement": "counteraction of the impact of rifampicin on BER transport", "setting": "[1]; GLY 5 μM, especially after 150 min treatment", "value": "could counteract the impact of 5 or 20, but not 50 μM rifampicin"},
      {"measurement": "anti-diabetic effects", "setting": "[2]; listed as GLY", "value": "did not show observable anti-diabetic effects"}
    ]}
  ]
}
